Data: paper PMC11070402, “New antiproliferative 3-substituted oxindoles inhibiting EGFR/VEGFR-2 and tubulin polymerization” (Molecular Diversity, 2023)
Like-named read-outs stand apart in the source and are kept apart here.

Legend:
[1] = test system: 60 human cancer cell lines; assay: NCI one-dose assay against sixty NCI cancer cell lines; assay type: cell-based
Method: (§1) All novel scaffolds 6a–j were carefully selected by the National Cancer Institute (NCI), Bethesda, USA, to elucidate their cytotoxic activity versus 60 human cancer cell lines at 10 µM as a single-dose concentration after a 48 h incubation period.
(§2) National Cancer Institution selected all the synthesized 6a–j (NCI), Bethesda, USA, for in vitro one-dose antitumor assay. The methodology protocol for the NCI anticancer screening was reported in detail elsewhere (http://www.dtp.nci.nih.gov). The anticancer assay was performed in full NCI 60 cell lines extracted from nine tumor cell lines, including leukemia, melanoma, lung, colon, CNS, ovarian, renal, prostate, and breast cancer cell lines.

[2] = test system: SNB-75 cells (CNS cancer cell line); assay: NCI one-dose assay, SNB-75; assay type: cell-based; conditions: Homo sapiens; SNB-75 (CNS Cancer), 10 uM single dose; read-out: Growth inhibition %
Method: as §1, §2

[3] = test system: HOP-92 (non-small cell lung cancer cell line); assay: NCI one-dose assay, HOP-92; assay type: cell-based; conditions: Homo sapiens; HOP-92 (Non-Small Cell Lung Cancer), 10 uM single dose; read-out: Growth inhibition %
Method: as §1, §2

UO-31 = assay: NCI one-dose assay, UO-31; assay type: cell-based; conditions: Homo sapiens; UO-31; 10 µM single dose, 48 h incubation; read-out: cell growth inhibition % (GI %)
Method: as §1, §2

K-562 = assay: NCI one-dose assay, K-562; assay type: cell-based; conditions: Homo sapiens, K562; K-562; 10 µM single dose, 48 h incubation; read-out: cell growth inhibition % (GI %)
Method: as §1, §2

MOLT-4 = assay: NCI one-dose assay, MOLT-4; assay type: cell-based; conditions: Homo sapiens; MOLT-4; 10 µM single dose, 48 h incubation; read-out: cell growth inhibition % (GI %)
Method: as §1, §2

SR = assay: NCI one-dose assay, SR; assay type: cell-based; conditions: Homo sapiens; SR; 10 µM single dose, 48 h incubation; read-out: cell growth inhibition % (GI %)
Method: as §1, §2

A549/ATCC = assay: NCI one-dose assay, A549/ATCC; assay type: cell-based; conditions: Homo sapiens, 10 µM single dose, 48 h incubation, read-out: cell growth inhibition % (GI %)
Method: as §1, §2

NCI-H23 = assay: NCI one-dose assay, NCI-H23; assay type: cell-based; conditions: Homo sapiens; NCI-H23; 10 µM single dose, 48 h incubation; read-out: cell growth inhibition % (GI %)
Method: as §1, §2

SK-MEL-5 = assay: NCI one-dose assay, SK-MEL-5; assay type: cell-based; conditions: Homo sapiens; SK-MEL-5; 10 µM single dose, 48 h incubation; read-out: cell growth inhibition % (GI %)
Method: as §1, §2

LOX IMVI = assay: NCI one-dose assay, LOX IMVI; assay type: cell-based; conditions: Homo sapiens; LOX IMVI; 10 µM single dose, 48 h incubation; read-out: cell growth inhibition % (GI %)
Method: as §1, §2

MCF-7 = assay: NCI one-dose assay, MCF-7; assay type: cell-based, human; conditions: MCF-7, 10 µM single dose, 48 h incubation
Method: as §1, §2

T-47D = assay: NCI one-dose assay, T-47D; assay type: cell-based; conditions: Homo sapiens, T47D; T-47D; 10 µM single dose, 48 h incubation; read-out: cell growth inhibition % (GI %)
Method: as §1, §2

[4] = test system: Human Skin Fibroblasts (HSF) cells; assay: Margin of safety: cytotoxicity on human skin fibroblasts (SRB assay); assay type: cell-based; conditions: Human Skin Fibroblasts, SRB assay, 72 h exposure, read-out: HSF (IC50 ± SD)
Method: Cell viability was assessed via SRB assay. Aliquots of 100 µl cell suspension (5 × 10^3 cells) were in 96-well plates and incubated in a complete media for 24 h. […] After 72 h of drug exposure, cells were fixed by replacing media with 150 µl of 10% TCA and incubated at 4 °C for 1 h. The TCA solution was removed, and the cells were washed 5 times with distilled water. Aliquots of […] SRB solution (0.4 w/v) were added and incubated in a dark place at room temperature for 10 min. Plates were washed 3 times with 1% acetic acid and allowed to air-dry overnight. Then, 150 µl of TRIS (10 mM) was added to dissolve the protein-bound SRB stain; the absorbance was measured at 540 nm using a BMG LAB TECH®-FLUO star Omega microplate reader (Ortenberg, Germany).

[5] = test system: MCF-7 (human breast cancer); assay: Cytotoxicity versus MCF-7 cell line (MTT assay); conditions: MCF7, read-out: MCF-7 (IC50 ± SD, uM)
Method: IC50 values were recorded using the Boltzman sigmoidal concentration–response curve equation using the nonlinear regression fitting models by GraphPad, Prism version 5 (GraphPad Software Inc., La Jolla, CA). MTT assay for MCF-7 cell lines. Cell line cells were obtained from American Type Culture Collection. Cells were cultured using DMEM media (Invitrogen/Life Technologies) supplemented with 10% FBS (Hyclone), 10 ug/ml of insulin (Sigma), and 1% penicillin–streptomycin. All the other chemicals and reagents were purchased from Sigma or Invitrogen. Cells were seeded in plates (cells density 1.2–1.8 × 10,000 cells/well) in a volume of 100 μl full-growth medium + 100 μl of the tested scaffold per well in a 96-well plate for 24 h before the application of the MTT assay protocol as reported, supplementary information.

How did the inhibition at 10 µM ([1]; 786-0 (Renal Cancer), 10 uM single dose, read-out: Growth inhibition %) turn out when `O=C1Nc2ccccc2C1=Cc1ccc(OCC(=O)c2ccc(Br)cc2)cc1` [Compound 6f, 3-{4-[2-(4-Bromophenyl)-2-oxoethoxy]benzylidene}indolin-2-one] was run?
The inhibition at 10 µM was 10.2%.

What about the inhibition at 10 µM ([1]; ACHN (Renal Cancer), 10 uM single dose, read-out: Growth inhibition %) of the same molecule?
The inhibition at 10 µM was 30%.

And the inhibition at 10 µM ([1]; BT-549 (Breast Cancer), 10 uM single dose, read-out: Growth inhibition %)?
The inhibition at 10 µM was 43.4%.

And the inhibition at 10 µM ([1]; CAKI-1 (Renal Cancer), 10 uM single dose, read-out: Growth inhibition %)?
Its inhibition at 10 µM is 32.2%.

And the inhibition at 10 µM ([1]; CCRF-CEM (Leukemia), 10 uM single dose, read-out: Growth inhibition %)?
The inhibition at 10 µM was 41.8%.

And the inhibition at 10 µM ([1]; COLO 205 (Colon Cancer), 10 uM single dose, read-out: Growth inhibition %)?
The inhibition at 10 µM was 34.1%.

What about the inhibition at 10 µM ([1]; DU-145 (Prostate Cancer), 10 uM single dose, read-out: Growth inhibition %) of the same molecule?
The inhibition at 10 µM was 14.4%.

And the inhibition at 10 µM ([1]; EKVX (Non-Small Cell Lung Cancer), 10 uM single dose, read-out: Growth inhibition %)?
Its inhibition at 10 µM is 34.4%.

What about the inhibition at 10 µM ([1]; HCC-2998 (Colon Cancer), 10 uM single dose, read-out: Growth inhibition %) of the same molecule?
The inhibition at 10 µM was 14.9%.

And the inhibition at 10 µM ([1]; HCT-15 (Colon Cancer), 10 uM single dose, read-out: Growth inhibition %)?
Its inhibition at 10 µM is 54.6%.

What about the inhibition at 10 µM ([1]; HCT-116 (Colon Cancer), 10 uM single dose, read-out: Growth inhibition %) of the same molecule?
The inhibition at 10 µM was 44.6%.

And the inhibition at 10 µM ([1]; HL-60(TB) (Leukemia), 10 uM single dose, read-out: Growth inhibition %)?
Its inhibition at 10 µM is 59.6%.

What about the inhibition at 10 µM ([1]; HS 578T (Breast Cancer), 10 uM single dose, read-out: Growth inhibition %) of the same molecule?
The inhibition at 10 µM was 15.6%.

And the inhibition at 10 µM ([1]; HT-29, HT29 (Colon Cancer), 10 uM single dose, read-out: Growth inhibition %)?
The inhibition at 10 µM was 17.2%.

What about the inhibition at 10 µM ([1]; IGROV-1, IGROV1 (Ovarian Cancer), 10 uM single dose, read-out: Growth inhibition %) of the same molecule?
The inhibition at 10 µM was 21.7%.

And the inhibition at 10 µM ([1]; KM12 (Colon Cancer), 10 uM single dose, read-out: Growth inhibition %)?
The inhibition at 10 µM was 22.7%.

What about the inhibition at 10 µM ([1]; M14 (Melanoma), 10 uM single dose, read-out: Growth inhibition %) of the same molecule?
Its inhibition at 10 µM is 26.9%.

And the inhibition at 10 µM ([1]; MALME-3M (Melanoma), 10 uM single dose, read-out: Growth inhibition %)?
The inhibition at 10 µM was 19%.

And the inhibition at 10 µM ([1]; MDA-MB-231, read-out: Growth inhibition %)?
The inhibition at 10 µM was 17.8%.

What about the inhibition at 10 µM ([1]; MDA-MB-435 (Melanoma), 10 uM single dose, read-out: Growth inhibition %) of the same molecule?
Its inhibition at 10 µM is 29.5%.

What about the inhibition at 10 µM ([1]; MDA-MB-468 (Breast Cancer), 10 uM single dose, read-out: Growth inhibition %) of the same molecule?
The inhibition at 10 µM was 47.6%.

What about the inhibition at 10 µM ([1]; NCI-H226 (Non-Small Cell Lung Cancer), 10 uM single dose, read-out: Growth inhibition %) of the same molecule?
The inhibition at 10 µM was 28.4%.

What about the inhibition at 10 µM ([1]; NCI-H322M (Non-Small Cell Lung Cancer), 10 uM single dose, read-out: Growth inhibition %) of the same molecule?
Its inhibition at 10 µM is 12.5%.

What about the inhibition at 10 µM ([1]; NCI-H460 (Non-Small Cell Lung Cancer), 10 uM single dose, read-out: Growth inhibition %) of the same molecule?
Its inhibition at 10 µM is 41.5%.

What about the inhibition at 10 µM ([1]; NCI-H522 (Non-Small Cell Lung Cancer), 10 uM single dose, read-out: Growth inhibition %) of the same molecule?
Its inhibition at 10 µM is 38.6%.

What about the inhibition at 10 µM ([1]; OVCAR-3 (Ovarian Cancer), 10 uM single dose, read-out: Growth inhibition %) of the same molecule?
Its inhibition at 10 µM is 22.5%.

And the inhibition at 10 µM ([1]; OVCAR-4 (Ovarian Cancer), 10 uM single dose, read-out: Growth inhibition %)?
The inhibition at 10 µM was 41.8%.

And the inhibition at 10 µM ([1]; OVCAR-8 (Ovarian Cancer), 10 uM single dose, read-out: Growth inhibition %)?
Its inhibition at 10 µM is 30.4%.

And the inhibition at 10 µM ([1]; PC-3 (Prostate Cancer), 10 uM single dose, read-out: Growth inhibition %)?
The inhibition at 10 µM was 37.6%.

And the inhibition at 10 µM ([1]; RPMI-8226 (Leukemia), 10 uM single dose, read-out: Growth inhibition %)?
Its inhibition at 10 µM is 50.8%.

And the inhibition at 10 µM ([1]; RXF 393 (Renal Cancer), 10 uM single dose, read-out: Growth inhibition %)?
Its inhibition at 10 µM is 32.4%.

And the inhibition at 10 µM ([1]; SF-295 (CNS Cancer), 10 uM single dose, read-out: Growth inhibition %)?
Its inhibition at 10 µM is 41.4%.

And the inhibition at 10 µM ([1]; SF-539 (CNS Cancer), 10 uM single dose, read-out: Growth inhibition %)?
The inhibition at 10 µM was 18.5%.

And the inhibition at 10 µM ([1]; SK-MEL-2 (Melanoma), 10 uM single dose, read-out: Growth inhibition %)?
The inhibition at 10 µM was 27.6%.

And the inhibition at 10 µM ([1]; SK-MEL-28 (Melanoma), 10 uM single dose, read-out: Growth inhibition %)?
The inhibition at 10 µM was 19.9%.

And the inhibition at 10 µM ([1]; SN12C (Renal Cancer), 10 uM single dose, read-out: Growth inhibition %)?
Its inhibition at 10 µM is 37.3%.

What about the inhibition at 10 µM ([1]; SNB-19 (CNS Cancer), 10 uM single dose, read-out: Growth inhibition %) of the same molecule?
The inhibition at 10 µM was 20.4%.

What about the inhibition at 10 µM ([1]; SW-620 (Colon Cancer), 10 uM single dose, read-out: Growth inhibition %) of the same molecule?
The inhibition at 10 µM was 21.9%.

What about the inhibition at 10 µM ([1]; U-251, U251 (CNS Cancer), 10 uM single dose, read-out: Growth inhibition %) of the same molecule?
The inhibition at 10 µM was 28.5%.

And the inhibition at 10 µM ([1]; UACC-62 (Melanoma), 10 uM single dose, read-out: Growth inhibition %)?
The inhibition at 10 µM was 47.4%.

And the inhibition at 10 µM ([1]; UACC-257 (Melanoma), 10 uM single dose, read-out: Growth inhibition %)?
The inhibition at 10 µM was 26.4%.

What about the inhibition at 10 µM [2] of the same molecule?
The inhibition at 10 µM was 20.4%.

What about the inhibition at 10 µM [3] of the same molecule?
The inhibition at 10 µM was 24.5%.

What about the inhibition at 10 µM (UO-31) of the same molecule?
The inhibition at 10 µM was 51.5%.

What about the inhibition at 10 µM (K-562) of the same molecule?
The inhibition at 10 µM was 72.2%.

What about the inhibition at 10 µM (MOLT-4) of the same molecule?
The inhibition at 10 µM was 91.5%.

And the inhibition at 10 µM (SR)?
The inhibition at 10 µM was 63.7%.

What about the inhibition at 10 µM (A549/ATCC) of the same molecule?
The inhibition at 10 µM was 41.6%.

And the inhibition at 10 µM (NCI-H23)?
Its inhibition at 10 µM is 49.1%.

What about the inhibition at 10 µM (SK-MEL-5) of the same molecule?
Its inhibition at 10 µM is 71.1%.

What about the inhibition at 10 µM (LOX IMVI) of the same molecule?
The inhibition at 10 µM was 71.1%.

What about the inhibition at 10 µM (MCF-7; Homo sapiens, MCF7, 48 h, read-out: cell growth inhibition % (GI %)) of the same molecule?
The inhibition at 10 µM was 72.6%.

What about the “cell growth inhibition % (GI %)” value (MCF-7) of the same molecule?
The value was 70.30%.

And the inhibition at 10 µM (T-47D)?
The inhibition at 10 µM was 53%.

What about the IC50 ([4]; Homo sapiens, HSF, 72 h) of the same molecule?
Its IC50 is 19.4 µM.

And the IC50 [4]?
Its IC50 is 19.4 ± 1.17 µM.

And the IC50 [5]?
Its IC50 is 14.8 ± 0.47 µM.
